# Measurements as given in patent US20130310256A1, “HERBICIDAL COMPOSITIONS COMPRISING 4-AMINO-3-CHLORO-5-FLUORO-6-(4-CHLORO-2-FLUORO-3-METHOXYPHENYL) PYRIDINE-2-CARBOXYLIC ACID OR A DERIVATIVE THEREOF AND VLCFA AND LIPID SYNTHESIS INHIBITING HERBICIDES” (DOW AGROSCIENCES LLC, priority 2008, published 2013).
# How the values were obtained:
# SCPJU [1] = assay: Example V: field trial, in-water application to transplanted rice, Niigata, Japan; assay type: in vivo, Scirpus juncoides; conditions: 31 DAA, submerged weeds
# Description: (§1) Post and pre-emergence field trials were conducted in Niigata, Japan. Trial sites were located in commercially grown fields of transplanted rice (Oryza sativa, variety: Koshihikari) using standard herbicide small plot research methodology. The trial plot size was 2 meters (m)×2 m with 3 replications. The nursery plants were grown in the greenhouse using practical methods and transplanted into the field at the 2.5-leaf stage on May 7, 2012. The row and in-row spaces were 30 cm and 17 cm, respectively. The crop was grown using normal cultural practices for fertilization, water management and maintenance to ensure good growth of the crop and the weeds.
# (§2) Treatments consisted of the benzyl ester of 4-amino-3-chloro-5-fluoro-6-(4-chloro-2-fluoro-3-methoxyphenyl)pyridine-2-carboxylic acid (Compound A) formulated as an SC (suspension concentrate) and various herbicidal components alone and in combination. Compound A benzyl ester was applied on an active ingredient basis. […]
# (§3) Compound A benzyl ester SC was once diluted in 100 mL water in the 200 mL bottle/plot to achieve the desired rates and applied by water injection. […] Visual weed control was scored on a scale of 0 to 100 percent where 0 corresponds to no injury and 100 corresponds to complete kill. […]
# POLHP = assay: as above; assay type: in vivo, Polygonum hydropiperoides; conditions: 31 DAA, submerged weeds
# Description: as §1, §2, §3
# SCPJU [2] = assay: Example II: in-water applied weed control, transplanted paddy rice, greenhouse; assay type: in vivo, Schoenoplectus juncoides (Roxb.) Palla (Japanese bulrush)
# Description: Weed seeds or nutlets of the desired test plant species were planted in puddled soil (mud) prepared by mixing a shredded, non-sterilized mineral soil (50.5 percent silt, 25.5 percent clay, and 24 percent sand, with a pH of about 7.6 and an organic matter content of about 2.9 percent) and water at a 1:1 volumetric ratio. The prepared mud was dispensed in 365 mL aliquots into 16-ounce (oz.) non-perforated plastic pots with a surface area of 86.59 square centimeters (cm^2) leaving a headspace of 3 centimeters (cm) in each pot. Mud was allowed to dry overnight prior to planting or transplanting. Rice seeds were planted in Sun Gro MetroMix® 306 planting mixture, which typically has a pH of 6.0 to 6.8 and an organic matter content of about 30 percent, in plastic plug trays. Seedlings at the second or third leaf stage of growth were transplanted into 840 mL of mud contained in 32-oz. non-perforated plastic pots with a surface area of 86.59 cm^2 4 days prior to herbicide application. The paddy was created by filling the headspace of the pots with 2.5 to 3 cm of water. When required to ensure good germination and healthy plants, a fungicide treatment and/or other chemical or physical treatment was applied. The plants were grown for 4-22 days in a greenhouse with an approximate 14 hr photoperiod which was maintained at about 29′C during the day and 26° C. during the night. Nutrients were added as Osmocote® (19:6:12, N:P:K+ minor nutrients) at 2 g per 16-oz. pot and 4 g per 32-oz. pot. […]
# Treatment requirements for each compound or herbicidal component were calculated based upon the rates being tested, the concentration of active ingredient or acid equivalent in the formulation, an application volume of 2 mL per component per pot, and an application area of 86.59 cm^2 per pot.
# For formulated compounds, a measured amount was placed in an individual 100 or 200 mL glass vial and was dissolved in a volume of 1.25% (v/v) Agri-Dex® crop oil concentrate to obtain application solutions. […]
# SCPJU [3] = assay: Example I: postemergence foliar-applied weed control, greenhouse; assay type: in vivo, Schoenoplectus juncoides (Roxb.) Palla (Japanese bulrush)
smiles,measurement,setting,value
"CCS(=O)(=O)Oc1ccc2c(c1)C(C)(C)CO2 [Benfuresate, 2,3-dihydro-3,3-dimethyl-5-benzofuranyl ethanesulfonate]",Visual Weed Control SCPJU Obs,SCPJU [1]; 600 gai/ha,64.3%
same,Visual Weed Control POLHP Obs,POLHP; 600 gai/ha,94.3%
"CCCOCCN(C(=O)CCl)c1c(CC)cccc1CC [Pretilachlor, 2-chloro-N-(2,6-diethylphenyl)-N-(2-propoxyethyl)acetamide]",Visual Weed Control (%) - 20 DAA SCPJU Obs,SCPJU [2]; 75 gai/ha,50%
same,Visual Weed Control (%) - 20 DAA SCPJU Obs,SCPJU [2]; 150 gai/ha,20%
"COc1c(Cl)ccc(-c2nc(C(=O)O)c(Cl)c(N)c2F)c1F [Compound A Acid, 4-amino-3-chloro-6-(4-chloro-2-fluoro-3-methoxyphenyl)-5-fluoropyridine-2-carboxylic acid]",Visual Weed Control (%) - 20 DAA SCPJU Obs,SCPJU [2]; 8.75 gae/ha,40%
"COc1c(Cl)ccc(-c2nc(C(=O)OCc3ccccc3)c(Cl)c(N)c2F)c1F [Compound A Benzyl Ester, benzyl ester of 4-amino-3-chloro-5-fluoro-6-(4-chloro-2-fluoro-3-methoxy-phenyl)pyridine-2-carboxylic acid]",Visual Weed Control SCPJU Obs,SCPJU [1]; 100 gai/ha,87.7%
same,Visual Weed Control POLHP Obs,POLHP; 100 gai/ha,68.3%
same,Visual Weed Control (%) - 21 DAA SCPJU Obs,SCPJU [3]; 4.38 gae/ha,40%
"CCN(CC)C(=O)n1cnc(S(=O)(=O)c2c(C)cc(C)cc2C)n1 [Cafenstrole, N,N-diethyl-3-[(2,4,6-trimethylphenyl)sulfonyl]-1H-1,2,4-triazole-1-carboxamide]",Visual Weed Control (%) - 21 DAA SCPJU Obs,SCPJU [3]; 26.25 gai/ha,0%
same,Visual Weed Control (%) - 21 DAA SCPJU Obs,SCPJU [3]; 52.5 gai/ha,0%
same,Visual Weed Control (%) - 21 DAA SCPJU Obs,SCPJU [3]; 105 gai/ha,0%
